Measurements as given in patent US11535643B2, “Macrolides with modified desosamine sugars and uses thereof” (President and Fellows of Harvard College, priority 2015, dated 2022).
Values after ≈ are worked out from the molar mass of the structure shown.

Columns and labels:
Assay type in all cases: cell-based
E. faecalis = test: Broth dilution MIC determination (CLSI) against E. faecalis strains; details: for MIC E. faecalis ATCC29212: ATCC29212, Strain No. MP-24; for MIC E. faecalis van resistant: Strain No. UNT-039
From the text: (§1) Minimum inhibitory concentrations (MICs) for macrolides described herein have been determined for unique strains of S. aureus, S. pneumoniae, S. pyogenes, E. faecalis, E. coli, A. baumannii, K. pneumoniae, P. aeruginosa, and H. influenzae, including several multidrug-resistant strains, with a special focus on macrolide resistant mechanisms. Azithromycin and solithromycin were included as control compounds. CLSI standard procedures for broth dilution MIC determination were used. Data for exemplary compounds described herein is shown in Tables M1-M7 and in Tables N1-N4.

E. coli = test: Broth dilution MIC determination (CLSI) against E. coli strains; details: for MIC E. coli ATCC25922: ATCC25922, Strain No. MP-4; for MIC E. coli ATCC25922:tolC: Strain No. MP-9; for MIC E. coli clinical: Strain No. MP541; for MIC E. coli clinical-cErm: Strain No. MP532
From the text: as §1

S. aureus = test: Broth dilution MIC determination (CLSI) against S. aureus strains; details: for MIC S. aureus ATCC29213: ATCC29213, Strain No. MP-12; for MIC S. aureus ATCCBAA-977: ATCCBAA-977, Strain No. MP-17; for MIC S. aureus (MRSA) GISA USA600: GISA USA600, Strain No. MP-619 UNT-120; for MIC S. aureus (MRSA) ST-228 cErm: Strain No. MP-513; for MIC S. aureus (MRSA) USA100: USA100, Strain No. MP-618 UNT-096; for MIC S. aureus (MRSA) USA300: USA300, Strain No. MP-549; for MIC S. aureus (MRSA) ermA phenotype: Strain No. MP-620 UNT-146
From the text: as §1

S. pyogenes = test: Broth dilution MIC determination (CLSI) against S. pyogenes strains; details: for MIC S. pyogenes ATCC19615: ATCC19615, Strain No. MP-19; for MIC S. pyogenes mac resistant: Strain No. MP-625 UNT-014
From the text: as §1

P. aeruginosa = test: Broth dilution MIC determination (CLSI) against P. aeruginosa strains; details: for MIC P. aeruginosa ATCC27853: ATCC27853, Strain No. MP-3; for MIC P. aeruginosa PAO1: PAO1, Strain No. MP-7; for MIC P. aeruginosa PAO1:mex: Strain No. MP-8
From the text: as §1

A. baumannii = test: Broth dilution MIC determination (CLSI) against A. baumannii strains; details: for MIC A. baumannii ATCC19606: ATCC19606, Strain No. MP-15
From the text: as §1

K. pneumoniae = test: Broth dilution MIC determination (CLSI) against K. pneumoniae strains; details: for MIC K. pneumoniae ATCC10031: ATCC10031, Strain No. MP-14
From the text: Minimum inhibitory concentrations (MICs) for macrolides described herein have been determined for unique strains of S. aureus, S. pneumoniae, S. pyogenes, E. faecalis, E. coli, A. baumannii, K. pneumoniae, P. aeruginosa, and H. influenzae, including several multidrug-resistant strains, with a special focus on macrolide resistant mechanisms. Azithromycin and solithromycin were included as control compounds. CLSI standard procedures for broth dilution MIC determination were used.

S. pneumoniae = test: Broth dilution MIC determination (CLSI) against S. pneumoniae strains; details: for MIC S. pneumoniae ATCC49619: ATCC49619, Strain No. MP-21
From the text: as §1

## C=CCOCC1CC(N(C)C)C(O)C(OC2C(C)C(=O)C(C)C(=O)OC(CC)C3(C)OC(=O)N(CCCCn4cc(-c5cccc(N)c5)nn4)C3C(C)NCC(C)CC2(C)OC)O1 (stereo not drawn) [FSM-120383]
E. faecalis
  MIC E. faecalis ATCC29212: 8 mg/L (≈ 9.05 µM)
  MIC E. faecalis van resistant: >64 mg/L
E. coli
  MIC E. coli ATCC25922: 32 mg/L (≈ 36.2 µM)
  MIC E. coli ATCC25922:tolC: 4 mg/L (≈ 4.52 µM)
  MIC E. coli clinical: 32 mg/L (≈ 36.2 µM)
  MIC E. coli clinical-cErm: >64 mg/L
S. aureus
  MIC S. aureus ATCC29213: >64 mg/L
  MIC S. aureus ATCCBAA-977: 64 mg/L (≈ 72.4 µM)
  MIC S. aureus (MRSA) GISA USA600: >64 mg/L
  MIC S. aureus (MRSA) ST-228 cErm: >64 mg/L
  MIC S. aureus (MRSA) USA100: >64 mg/L
  MIC S. aureus (MRSA) USA300: >64 mg/L
  MIC S. aureus (MRSA) ermA phenotype: >64 mg/L
S. pyogenes
  MIC S. pyogenes ATCC19615: 0.25 mg/L (≈ 0.283 µM)
  MIC S. pyogenes mac resistant: 1 mg/L (≈ 1.13 µM)
P. aeruginosa
  MIC P. aeruginosa ATCC27853: 32 mg/L (≈ 36.2 µM)
  MIC P. aeruginosa PAO1: 64 mg/L (≈ 72.4 µM)
  MIC P. aeruginosa PAO1:mex: 8 mg/L (≈ 9.05 µM)
A. baumannii
  MIC A. baumannii ATCC19606: 32 mg/L (≈ 36.2 µM)
A. baumannii; Strain No. MP576
  MIC A. baumannii clinical: >64 mg/L
A. baumannii; Strain No. MP577
  MIC A. baumannii clinical: 64 mg/L (≈ 72.4 µM)
K. pneumoniae
  MIC K. pneumoniae ATCC10031: 8 mg/L (≈ 9.05 µM)
K. pneumoniae; Strain No. MP546
  MIC K. pneumoniae clinical: >64 mg/L
K. pneumoniae; Strain No. MP548
  MIC K. pneumoniae clinical: >64 mg/L
S. pneumoniae
  MIC S. pneumoniae ATCC49619: 0.5 mg/L (≈ 0.566 µM)
S. pneumoniae; Strain No. MP-626 UNT-038
  MIC S. pneumoniae mefA: 0.5 mg/L (≈ 0.566 µM)
S. pneumoniae; Strain No. MP-627 UNT-039
  MIC S. pneumoniae mefA: 0.5 mg/L (≈ 0.566 µM)

## CCC1OC(=O)C(C)C(=O)C(C)C(OC2OC(CNCc3ccc(F)cc3)CC(N(C)C)C2O)C(C)(OC)CC(C)CNC(C)C2N(CCCCn3cc(-c4cccc(N)c4)nn3)C(=O)OC12C (stereo not drawn) [FSM-120391]
E. faecalis
  MIC E. faecalis ATCC29212: 1 mg/L (≈ 1.05 µM)
  MIC E. faecalis van resistant: >64 mg/L
E. coli
  MIC E. coli ATCC25922: 4 mg/L (≈ 4.21 µM)
  MIC E. coli ATCC25922:tolC: 0.25 mg/L (≈ 0.263 µM)
  MIC E. coli clinical: 8 mg/L (≈ 8.41 µM)
  MIC E. coli clinical-cErm: >64 mg/L
S. aureus
  MIC S. aureus ATCC29213: 4 mg/L (≈ 4.21 µM)
  MIC S. aureus ATCCBAA-977: 4 mg/L (≈ 4.21 µM)
  MIC S. aureus (MRSA) GISA USA600: >64 mg/L
  MIC S. aureus (MRSA) ST-228 cErm: >64 mg/L
  MIC S. aureus (MRSA) USA100: >64 mg/L
  MIC S. aureus (MRSA) USA300: 4 mg/L (≈ 4.21 µM)
  MIC S. aureus (MRSA) ermA phenotype: >64 mg/L
S. pyogenes
  MIC S. pyogenes ATCC19615: <0.03 mg/L
  MIC S. pyogenes mac resistant: 0.5 mg/L (≈ 0.526 µM)
P. aeruginosa
  MIC P. aeruginosa ATCC27853: 64 mg/L (≈ 67.3 µM)
  MIC P. aeruginosa PAO1: >64 mg/L
  MIC P. aeruginosa PAO1:mex: 16 mg/L (≈ 16.8 µM)
A. baumannii
  MIC A. baumannii ATCC19606: 64 mg/L (≈ 67.3 µM)
A. baumannii; Strain No. MP576
  MIC A. baumannii clinical: >64 mg/L
A. baumannii; Strain No. MP577
  MIC A. baumannii clinical: 16 mg/L (≈ 16.8 µM)
K. pneumoniae
  MIC K. pneumoniae ATCC10031: 4 mg/L (≈ 4.21 µM)
K. pneumoniae; Strain No. MP546
  MIC K. pneumoniae clinical: 64 mg/L (≈ 67.3 µM)
K. pneumoniae; Strain No. MP548
  MIC K. pneumoniae clinical: 32 mg/L (≈ 33.6 µM)
S. pneumoniae
  MIC S. pneumoniae ATCC49619: <0.03 mg/L
S. pneumoniae; Strain No. MP-626 UNT-038
  MIC S. pneumoniae mefA: 0.06 mg/L (≈ 0.0631 µM)
S. pneumoniae; Strain No. MP-627 UNT-039
  MIC S. pneumoniae mefA: 0.125 mg/L (≈ 0.131 µM)
